Consider 4 compounds from ChEMBL document CHEMBL1201862, “PubChem BioAssay data set” (2004).

Each structure is given as a SMILES string. The source made the active and inactive calls. A value given as a limit tells only on which side of the number the result lay.

For one experiment, the system named is CHO. In words: cytotoxicity in TLR9-MyD88 CHO cells, dose response, cytotoxicity control for TLR9-MyD88 binding inhibitor project, cell-based, luminescence (AID 588339).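 Note: CHO cells stably coexpressing TLR9 and MyD88 fusions from primary screen; compound exposure lasted 48 hours before viability readout.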 Type of experiment: functional, hamster. As to conditions: Cricetulus griseus.
Experiment [1] has as its target T1, Zinc finger protein mex-5 (Caenorhabditis elegans, UniProt Q9XUB2).
T1 sequence (Q9XUB2 whole entry): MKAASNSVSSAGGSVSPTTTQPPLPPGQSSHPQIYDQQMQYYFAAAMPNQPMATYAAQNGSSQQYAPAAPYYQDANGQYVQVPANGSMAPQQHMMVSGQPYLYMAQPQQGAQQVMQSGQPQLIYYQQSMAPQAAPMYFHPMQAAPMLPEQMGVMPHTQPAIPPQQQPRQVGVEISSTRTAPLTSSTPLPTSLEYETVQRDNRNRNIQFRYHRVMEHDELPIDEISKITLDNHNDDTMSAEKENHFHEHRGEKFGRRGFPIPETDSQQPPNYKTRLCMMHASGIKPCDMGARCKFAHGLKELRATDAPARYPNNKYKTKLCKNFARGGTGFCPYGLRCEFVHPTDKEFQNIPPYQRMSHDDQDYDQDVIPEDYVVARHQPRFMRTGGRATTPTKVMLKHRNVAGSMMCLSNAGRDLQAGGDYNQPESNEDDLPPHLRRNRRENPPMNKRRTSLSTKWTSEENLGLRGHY
In words: MEX-5/TCR-2 RNA interaction inhibitors, dose response, biochemical, C. elegans, fluorescence polarization (AID 1960). (In fluorescence polarisation assays a small probe gives low polarisation when free and higher when bound to something large.)

Experiment [2] concerns the target T2, RNA-binding protein pos-1 (Caenorhabditis elegans, UniProt G5EF15).
T2 sequence (G5EF15 whole entry): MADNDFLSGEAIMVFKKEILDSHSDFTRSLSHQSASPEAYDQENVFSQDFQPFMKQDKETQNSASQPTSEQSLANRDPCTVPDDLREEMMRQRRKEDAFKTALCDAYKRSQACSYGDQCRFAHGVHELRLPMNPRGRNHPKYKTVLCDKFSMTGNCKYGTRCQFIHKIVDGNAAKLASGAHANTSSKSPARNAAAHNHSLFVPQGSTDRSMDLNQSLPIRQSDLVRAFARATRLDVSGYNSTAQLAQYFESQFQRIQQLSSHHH
The experiment in a line: inhibitors of POS-1/mex-3 RNA binding, dose response, biochemical, fluorescence polarization (AID 1964).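 Note: purified POS-1 fused to maltose binding protein made in E. coli; potency of compounds blocking POS-1 binding to fluorescent RNA.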

Experiment [3] addresses Beta-lactamase (Pseudomonas aeruginosa, UniProt Q79MP6).
The next experiment deals with Beta Lactamase (Pseudomonas aeruginosa, UniProt Q932Y6). In words: beta-lactamase reporter inhibitor potency, dose response, artefact control for TLR9-MyD88 binding inhibitor project, BLA reporter cells, FRET fluorescence (AID 588341).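 Note: cell based assay in CHO-K1 cells stably expressing beta-lactamase.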 The experiment is classed as cell-based.
Sequence of Beta Lactamase (Q932Y6 whole entry): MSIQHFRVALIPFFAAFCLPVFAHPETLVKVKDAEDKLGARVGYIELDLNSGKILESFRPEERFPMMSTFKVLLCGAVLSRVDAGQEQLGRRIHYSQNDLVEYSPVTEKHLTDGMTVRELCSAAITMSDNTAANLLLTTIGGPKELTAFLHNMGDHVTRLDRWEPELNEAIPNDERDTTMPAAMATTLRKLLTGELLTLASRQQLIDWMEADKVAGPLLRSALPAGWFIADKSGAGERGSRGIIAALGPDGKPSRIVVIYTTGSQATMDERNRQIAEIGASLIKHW
Experiment [4] concerns the target Beta-lactamase (Salmonella choleraesuis (strain SC-B67), UniProt Q5J463).
Experiment [5] concerns the target T3, High affinity choline transporter 1 (Homo sapiens, UniProt Q9GZV3).
T3 sequence (Q9GZV3 whole entry): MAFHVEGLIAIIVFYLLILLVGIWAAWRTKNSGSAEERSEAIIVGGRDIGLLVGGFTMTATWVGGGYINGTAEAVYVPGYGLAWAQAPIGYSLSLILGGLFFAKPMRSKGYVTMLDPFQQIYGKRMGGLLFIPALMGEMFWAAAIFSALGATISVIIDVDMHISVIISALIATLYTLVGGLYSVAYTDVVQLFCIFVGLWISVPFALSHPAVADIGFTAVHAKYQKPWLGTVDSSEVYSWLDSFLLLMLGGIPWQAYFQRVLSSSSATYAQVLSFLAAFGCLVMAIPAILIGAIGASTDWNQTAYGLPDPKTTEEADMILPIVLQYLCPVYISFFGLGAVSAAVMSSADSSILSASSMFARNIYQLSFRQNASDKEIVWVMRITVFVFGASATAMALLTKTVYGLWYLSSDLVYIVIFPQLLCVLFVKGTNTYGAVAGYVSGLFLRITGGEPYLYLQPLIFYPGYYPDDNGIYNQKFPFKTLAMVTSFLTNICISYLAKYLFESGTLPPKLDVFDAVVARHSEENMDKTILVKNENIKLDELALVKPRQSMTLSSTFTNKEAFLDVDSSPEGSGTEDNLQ
In words: CHT activators, dose response, cell-based, 10-point CRC, membrane potential dye (AID 602376). The experiment is classed as functional.

Experiment [6] addresses T4, Glycogen synthase kinase-3 alpha (Homo sapiens, UniProt P49840). The experiment in a line: Inhibition of Human GSK-3 alpha Activity Measured in Biochemical System Using Microfluidics - 2063-06_Inhibitor_Dose_DryPowder_Activity_Set2. [Related pubchem assays (depositor defined):AID2709].
Experiment [7] concerns the target Glycogen synthase kinase-3 beta (Homo sapiens, UniProt P49841). In words: Inhibition of Human GSK-3 beta Activity Measured in Biochemical System Using Microfluidics - 2063-05_Inhibitor_Dose_DryPowder_Activity_Set2. [Related pubchem assays (depositor defined):AID2709].
Experiment [8] has as its target Cyclin-dependent kinase 5/CDK5 activator 1 (Homo sapiens, UniProt Q00535). In words: CDK5-p25 kinase inhibitors, specificity check, dose response, selectivity assay for GSK-3 alpha inhibitor project, biochemical, microfluidic mobility shift, dry powder (AID 588430).
For experiment [9], the target named is Vascular endothelial growth factor receptor 1 (Homo sapiens, UniProt P17948). The experiment is classed as functional.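 Note: measured within a kinome-wide profiling panel, FLT1 as the panel member.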
For experiment [10], the target named is Tyrosine-protein kinase BTK (Homo sapiens, UniProt Q06187). Type of experiment: functional.
Experiment [11] has as its target Mitogen-activated protein kinase 14 (Homo sapiens, UniProt Q16539). The experiment is classed as functional.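 Note: part of a kinome-wide panel, MAPK14 entry.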
Experiment [12] addresses Death-associated protein kinase 3 (Homo sapiens, UniProt O43293). Type of experiment: functional.
In experiment [13] the target is G protein-coupled receptor kinase 5 (Homo sapiens, UniProt P34947). The experiment in a line: Navigating the Kinome. Panel member name: GPRK5. Type of experiment: functional.
Experiment [14] concerns the target Dual specificity protein kinase CLK4 (Homo sapiens, UniProt Q9HAZ1). Type of experiment: functional.
For experiment [15], the target named is Tyrosine-protein kinase Lck (Homo sapiens, UniProt P06239). The experiment is classed as functional.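 Note: lck was assayed as one member of a kinase panel.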
Sequence of Tyrosine-protein kinase Lck (P06239 whole entry, canonical isoform): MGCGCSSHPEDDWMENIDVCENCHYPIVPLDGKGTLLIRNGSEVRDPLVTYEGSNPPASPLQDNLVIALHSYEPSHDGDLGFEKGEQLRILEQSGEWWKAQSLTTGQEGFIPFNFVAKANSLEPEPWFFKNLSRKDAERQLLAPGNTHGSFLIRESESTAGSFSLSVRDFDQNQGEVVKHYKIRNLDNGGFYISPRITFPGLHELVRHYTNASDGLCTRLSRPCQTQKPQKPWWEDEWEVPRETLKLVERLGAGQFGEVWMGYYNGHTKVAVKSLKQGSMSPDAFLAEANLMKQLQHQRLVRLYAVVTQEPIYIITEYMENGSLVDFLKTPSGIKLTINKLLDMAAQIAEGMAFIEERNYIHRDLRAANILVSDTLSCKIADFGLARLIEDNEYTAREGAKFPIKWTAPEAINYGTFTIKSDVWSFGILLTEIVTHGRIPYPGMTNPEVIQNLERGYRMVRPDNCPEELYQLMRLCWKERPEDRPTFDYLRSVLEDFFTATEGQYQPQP
The target in experiment [16] is Casein kinase I isoform alpha (Homo sapiens, UniProt P48729). Type of experiment: functional.
The target in experiment [17] is Calcium/calmodulin-dependent protein kinase type II subunit alpha (Homo sapiens, UniProt Q9UQM7). The experiment in a line: Navigating the Kinome. Panel member name: CAMK2A. Type of experiment: functional.
Sequence of Calcium/calmodulin-dependent protein kinase type II subunit alpha (Q9UQM7 whole entry): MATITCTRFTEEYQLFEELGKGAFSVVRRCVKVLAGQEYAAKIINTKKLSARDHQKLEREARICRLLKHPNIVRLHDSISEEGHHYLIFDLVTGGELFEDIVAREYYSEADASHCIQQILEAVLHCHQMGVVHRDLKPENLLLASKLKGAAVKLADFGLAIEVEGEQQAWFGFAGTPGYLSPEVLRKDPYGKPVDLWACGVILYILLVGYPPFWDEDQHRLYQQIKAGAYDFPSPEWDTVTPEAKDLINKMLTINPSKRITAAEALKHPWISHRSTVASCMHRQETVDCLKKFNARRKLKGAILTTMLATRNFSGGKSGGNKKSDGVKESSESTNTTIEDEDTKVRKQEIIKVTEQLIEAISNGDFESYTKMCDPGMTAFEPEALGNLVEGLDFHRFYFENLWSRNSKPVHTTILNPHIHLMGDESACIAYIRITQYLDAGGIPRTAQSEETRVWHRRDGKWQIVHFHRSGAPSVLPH
For the next experiment, the target named is Aurora kinase B (Homo sapiens, UniProt Q96GD4). The experiment is classed as functional.
Sequence of Aurora kinase B (Q96GD4 whole entry): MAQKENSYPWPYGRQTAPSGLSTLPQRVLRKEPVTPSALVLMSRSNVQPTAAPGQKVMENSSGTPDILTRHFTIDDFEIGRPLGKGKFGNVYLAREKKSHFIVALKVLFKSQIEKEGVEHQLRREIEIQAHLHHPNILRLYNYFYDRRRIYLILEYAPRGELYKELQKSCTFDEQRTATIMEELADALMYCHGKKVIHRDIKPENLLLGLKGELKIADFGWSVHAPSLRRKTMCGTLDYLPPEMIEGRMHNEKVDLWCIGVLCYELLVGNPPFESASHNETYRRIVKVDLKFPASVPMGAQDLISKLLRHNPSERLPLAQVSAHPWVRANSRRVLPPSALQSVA
In experiment [18] the target is Serine/threonine-protein kinase D3 (Homo sapiens, UniProt O94806). Type of experiment: functional.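 Note: determined within a kinase panel screen, with PRKCN as the panel member.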
For experiment [19], the target named is cAMP-dependent protein kinase catalytic subunit PRKX (Homo sapiens, UniProt P51817). Type of experiment: functional.
Experiment [20] concerns the target Mitogen-activated protein kinase kinase kinase kinase 2 (Homo sapiens, UniProt Q12851). The experiment is classed as functional.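 Note: measured as one member of a kinome-wide kinase panel, with MAP4K2 as the panel entry.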
Experiment [21] deals with Dual specificity tyrosine-phosphorylation-regulated kinase 1A (Homo sapiens, UniProt Q13627). The experiment is classed as functional.
For experiment [22], the target named is Dual specificity tyrosine-phosphorylation-regulated kinase 1B (Homo sapiens, UniProt Q9Y463). In words: Navigating the Kinome. Panel member name: DYRK1B. The experiment is classed as functional.
Sequence of Dual specificity tyrosine-phosphorylation-regulated kinase 1B (Q9Y463 whole entry): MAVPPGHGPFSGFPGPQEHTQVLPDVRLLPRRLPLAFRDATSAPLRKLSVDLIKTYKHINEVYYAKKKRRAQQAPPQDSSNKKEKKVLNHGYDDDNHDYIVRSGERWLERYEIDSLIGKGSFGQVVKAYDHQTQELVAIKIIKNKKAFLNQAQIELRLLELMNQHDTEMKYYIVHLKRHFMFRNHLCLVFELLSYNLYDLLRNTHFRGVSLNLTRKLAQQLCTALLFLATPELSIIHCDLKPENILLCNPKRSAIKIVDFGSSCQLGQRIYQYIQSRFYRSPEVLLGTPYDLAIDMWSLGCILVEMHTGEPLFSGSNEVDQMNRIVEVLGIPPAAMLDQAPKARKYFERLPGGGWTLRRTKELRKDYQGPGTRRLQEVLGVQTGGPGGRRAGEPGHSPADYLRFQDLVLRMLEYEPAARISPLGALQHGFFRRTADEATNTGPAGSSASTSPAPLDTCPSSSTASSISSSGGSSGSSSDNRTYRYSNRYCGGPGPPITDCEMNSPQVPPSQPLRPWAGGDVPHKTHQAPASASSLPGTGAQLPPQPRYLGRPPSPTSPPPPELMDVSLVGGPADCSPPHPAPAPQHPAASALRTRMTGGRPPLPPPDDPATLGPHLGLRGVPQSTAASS
Another experiment concerns the target Activin receptor type-1 (Homo sapiens, UniProt Q04771). The experiment in a line: Navigating the Kinome. Panel member name: ACVR1. The experiment is classed as functional.
The target of experiment [23] is Cyclin-dependent kinase 8 (Homo sapiens, UniProt P49336). In words: Navigating the Kinome. Panel member name: CDK8. Type of experiment: functional.
Experiment [24] has as its target Fibroblast growth factor receptor 1 (Homo sapiens, UniProt P11362). Type of experiment: functional.
The target in experiment [25] is Serine/threonine-protein kinase PAK 4 (Homo sapiens, UniProt O96013). The experiment is classed as functional.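 Note: value obtained within a kinome profiling panel in which PAK4 was one of the panel members.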
For experiment [26], the target named is Serine/threonine-protein kinase Chk1 (Homo sapiens, UniProt O14757). The experiment is classed as functional.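 Note: measured as one member of a kinome-wide kinase profiling panel.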
Experiment [27] deals with Mitogen-activated protein kinase kinase kinase kinase 4 (Homo sapiens, UniProt O95819). Type of experiment: functional.
For experiment [28], the target named is Mitogen-activated protein kinase 8 (Homo sapiens, UniProt P45983). The experiment is classed as functional.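 Note: value comes from one member of a kinome-wide kinase profiling panel.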
Sequence of Mitogen-activated protein kinase 8 (P45983 whole entry): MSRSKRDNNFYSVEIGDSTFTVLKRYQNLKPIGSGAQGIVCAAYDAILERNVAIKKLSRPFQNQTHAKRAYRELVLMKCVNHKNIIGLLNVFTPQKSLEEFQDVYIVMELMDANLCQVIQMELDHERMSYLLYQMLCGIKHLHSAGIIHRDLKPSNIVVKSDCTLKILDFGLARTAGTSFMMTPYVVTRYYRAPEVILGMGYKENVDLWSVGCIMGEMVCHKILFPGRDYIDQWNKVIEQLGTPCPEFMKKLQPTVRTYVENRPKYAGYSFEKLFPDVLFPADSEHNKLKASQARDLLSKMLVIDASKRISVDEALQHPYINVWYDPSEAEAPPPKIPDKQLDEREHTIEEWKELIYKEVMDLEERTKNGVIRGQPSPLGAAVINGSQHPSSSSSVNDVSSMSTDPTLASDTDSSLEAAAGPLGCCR
Experiment [29] deals with Tyrosine-protein kinase Fyn (Homo sapiens, UniProt P06241). Type of experiment: functional.
Sequence of Tyrosine-protein kinase Fyn (P06241 whole entry): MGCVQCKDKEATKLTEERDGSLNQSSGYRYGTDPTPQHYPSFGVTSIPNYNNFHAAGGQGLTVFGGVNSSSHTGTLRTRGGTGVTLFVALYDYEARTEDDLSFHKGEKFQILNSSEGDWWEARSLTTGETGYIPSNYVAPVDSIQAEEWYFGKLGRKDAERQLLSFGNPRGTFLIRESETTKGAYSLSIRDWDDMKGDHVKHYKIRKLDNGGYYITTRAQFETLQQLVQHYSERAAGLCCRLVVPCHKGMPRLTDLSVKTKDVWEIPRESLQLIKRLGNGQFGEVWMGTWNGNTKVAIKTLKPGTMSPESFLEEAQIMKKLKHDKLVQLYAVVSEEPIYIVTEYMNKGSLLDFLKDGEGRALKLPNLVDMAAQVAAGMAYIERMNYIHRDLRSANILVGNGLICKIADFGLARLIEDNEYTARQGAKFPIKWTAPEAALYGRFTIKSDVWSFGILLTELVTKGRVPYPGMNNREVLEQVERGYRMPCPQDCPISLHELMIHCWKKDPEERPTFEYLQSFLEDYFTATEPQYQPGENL
Experiment [30] addresses T4, Glycogen synthase kinase-3 alpha. Type of experiment: functional.
Experiment [31] has as its target Serine/threonine-protein kinase TAO1 (Homo sapiens, UniProt Q7L7X3). Type of experiment: functional.
In experiment [32] the target is Leukocyte tyrosine kinase receptor (Homo sapiens, UniProt P29376). The experiment in a line: Navigating the Kinome. Panel member name: LTK. Type of experiment: functional.
In experiment [33] the target is Tyrosine-protein kinase JAK3 (Homo sapiens, UniProt P52333). The experiment is classed as functional.
In experiment [34] the target is Hepatocyte growth factor receptor (Homo sapiens, UniProt P08581). The experiment is classed as functional.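 Note: kinase panel profiling across the kinome, with MET as the panel member.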
For experiment [35], the target named is ALK tyrosine kinase receptor (Homo sapiens, UniProt Q9UM73). The experiment is classed as functional.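 Note: ALK tested as one member of a kinase panel screen.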
For experiment [36], the target named is Platelet-derived growth factor receptor alpha (Homo sapiens, UniProt P16234). In words: Navigating the Kinome. Panel member name: PDGFRA. Type of experiment: functional.
For experiment [37], the target named is Cyclin-dependent kinase 7 (Homo sapiens, UniProt P50613). Type of experiment: functional.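 Note: value comes from a kinome-wide kinase profiling panel in which CDK7 is one member.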
In experiment [38] the target is Serine/threonine-protein kinase Nek2 (Homo sapiens, UniProt P51955). Type of experiment: functional.
In experiment [39] the target is Serine/threonine-protein kinase pim-1 (Homo sapiens, UniProt P11309). The experiment is classed as functional.

T4 sequence (P49840 whole entry): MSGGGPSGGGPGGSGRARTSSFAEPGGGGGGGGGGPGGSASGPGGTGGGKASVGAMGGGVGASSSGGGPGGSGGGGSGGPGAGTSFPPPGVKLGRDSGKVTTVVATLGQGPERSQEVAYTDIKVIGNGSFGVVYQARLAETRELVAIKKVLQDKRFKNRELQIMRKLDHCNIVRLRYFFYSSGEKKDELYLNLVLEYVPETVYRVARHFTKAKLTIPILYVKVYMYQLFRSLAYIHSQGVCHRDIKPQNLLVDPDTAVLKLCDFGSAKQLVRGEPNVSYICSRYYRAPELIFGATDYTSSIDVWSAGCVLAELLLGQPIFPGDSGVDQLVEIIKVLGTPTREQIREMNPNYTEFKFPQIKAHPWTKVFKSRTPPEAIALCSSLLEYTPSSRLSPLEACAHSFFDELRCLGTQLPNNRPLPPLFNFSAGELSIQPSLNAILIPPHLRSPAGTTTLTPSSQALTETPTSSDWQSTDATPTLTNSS
Sequence of Beta-lactamase (Pseudomonas aeruginosa, UniProt Q79MP6) (Q79MP6 whole entry): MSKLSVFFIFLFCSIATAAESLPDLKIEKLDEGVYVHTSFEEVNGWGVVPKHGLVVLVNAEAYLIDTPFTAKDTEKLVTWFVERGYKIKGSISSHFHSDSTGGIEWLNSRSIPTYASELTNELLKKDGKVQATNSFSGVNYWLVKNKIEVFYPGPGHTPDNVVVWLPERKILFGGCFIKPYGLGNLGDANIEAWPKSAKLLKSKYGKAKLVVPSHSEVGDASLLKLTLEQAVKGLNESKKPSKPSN
Sequence of Mitogen-activated protein kinase 14 (Q16539 whole entry): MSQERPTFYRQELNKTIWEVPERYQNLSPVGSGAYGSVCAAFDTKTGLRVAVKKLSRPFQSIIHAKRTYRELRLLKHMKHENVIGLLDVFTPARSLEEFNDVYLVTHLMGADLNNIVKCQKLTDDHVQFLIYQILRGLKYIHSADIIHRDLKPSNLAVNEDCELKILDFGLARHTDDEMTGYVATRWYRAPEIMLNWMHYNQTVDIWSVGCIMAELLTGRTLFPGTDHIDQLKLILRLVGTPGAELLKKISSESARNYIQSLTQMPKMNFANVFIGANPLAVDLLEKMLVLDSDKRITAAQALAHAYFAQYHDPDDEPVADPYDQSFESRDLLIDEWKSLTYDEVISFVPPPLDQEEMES
Sequence of Activin receptor type-1 (Q04771 whole entry): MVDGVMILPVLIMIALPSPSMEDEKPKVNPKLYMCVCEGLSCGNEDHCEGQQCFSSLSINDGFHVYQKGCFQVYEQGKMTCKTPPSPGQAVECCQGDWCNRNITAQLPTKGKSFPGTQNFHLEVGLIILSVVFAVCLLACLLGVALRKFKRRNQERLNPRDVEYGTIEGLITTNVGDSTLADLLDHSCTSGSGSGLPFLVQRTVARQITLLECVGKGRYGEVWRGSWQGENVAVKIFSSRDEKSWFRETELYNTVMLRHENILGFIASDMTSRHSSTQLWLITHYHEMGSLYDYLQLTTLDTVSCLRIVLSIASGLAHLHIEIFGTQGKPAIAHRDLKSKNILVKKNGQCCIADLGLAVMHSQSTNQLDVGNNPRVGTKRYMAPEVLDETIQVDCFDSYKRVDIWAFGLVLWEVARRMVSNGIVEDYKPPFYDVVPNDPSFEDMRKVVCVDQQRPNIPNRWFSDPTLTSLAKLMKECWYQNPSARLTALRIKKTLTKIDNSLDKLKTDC

`CCN(CC)c1ccc(/C=C/C(=O)c2ccc(Br)cc2)cc1`: the IC50 (commonly the concentration at which inhibition is half-maximal) with CHO is > 49.7 µM (inactive); at Beta-lactamase [3], 11 µM (inactive); at Beta Lactamase, 3.82 µM (active); on Beta-lactamase [4] it was 3.09 µM (active). Besides, the EC50 (in general, the midpoint of the concentration-response curve) was 13.5 µM (inconclusive) in experiment [1] and 13.8 µM (inconclusive) in [2].

Take `CN(Cc1ccc(F)cc1)C(=O)c1sccc1-c1ccccc1`: the EC50 in experiment [5] is 18.2 µM (active).

With `O=C(CN1C(=O)CCC1=O)Nc1cccc2c1C(=O)NC2=O`, the AC50 (as a rule, the concentration giving half of the maximal activity seen) in experiment [6] was 0.459 µM (active); in experiment [7], 0.261 µM (active); in experiment [8], 20.2 µM (active).

Take `CCN1c2cc(N)ccc2-c2ccc(N)cc2C1(O)c1ccccc1` (stereo not drawn): the Ki – broadly, a dissociation constant, usually derived from enzyme kinetics or from competition with a known ligand – was 3.16 µM (active) in experiment [9]; 3.98 µM (active) in experiment [10]; > 3.98 µM (inactive) in experiment [11]; > 5.01 µM (inactive) in experiment [12]; > 3.98 µM (inactive) in [13]; 0.398 µM (active) in experiment [14]. The Ki in [15] was > 6.31 µM (inactive); in experiment [16], > 3.98 µM (inactive); in experiment [17], > 3.98 µM (inactive); at Aurora kinase B it was > 3.98 µM (inactive); in experiment [18] it was 3.98 µM (active); in experiment [19] it was 2 µM (active). The Ki in experiment [20] was 2 µM (active); in [21], 0.794 µM (active); in experiment [22], 2.51 µM (active); at Activin receptor type-1, > 3.98 µM (inactive); in experiment [23], > 3.98 µM (inactive); in [24], > 3.98 µM (inactive). The Ki was > 5.01 µM (inactive) in experiment [25]; 2 µM (active) in experiment [26]; 3.16 µM (active) in [27]; > 5.01 µM (inactive) in [28]; > 6.31 µM (inactive) in experiment [29]; > 3.98 µM (inactive) in experiment [30]. Further, the inhibition constant Ki was 3.16 µM (active) in [31]; 2 µM (active) in experiment [32]; 3.16 µM (active) in experiment [33]; 2.51 µM (active) in experiment [34]; > 6.31 µM (inactive) in experiment [35]; 1.26 µM (active) in experiment [36]. For the same compound, the Ki in experiment [37] is > 3.98 µM (inactive); in [38] it was 2 µM (active); in experiment [39] it was > 6.31 µM (inactive).
